In patent US20030212118A1, “Treatment of eating disorders using carboxyalkylethers” (priority 2000, published 2003):
Counter-ions that a name gives are not always drawn. Marks after values point to notes of the source that are not given here.

Legend:
[1] = Evaluation of CI-1027 in female obese Zucker rats (body weight and liver weight); assay type: in vivo; details: for Body Weight Day 0: Day 0 (baseline), mean ± SEM; for Body Weight Day 0 / Body Weight Day 7 / Body Weight Day 14 / Body Weight Day 21 / Body Weight Day 28 / Body Weight Day 32 / Liver Weight Day 32 / Percent Liver/Body Weight: n = 6; for Body Weight Day 7: Day 7, mean ± SEM; for Body Weight Day 14: Day 14, mean ± SEM; for Body Weight Day 21: Day 21, mean ± SEM; for Body Weight Day 28: Day 28, mean ± SEM; for Body Weight Day 32 / Liver Weight Day 32 / Percent Liver/Body Weight: Day 32, mean ± SEM
Description: Adult female obese Zucker rats weighing 265 to 268 g were obtained from Genetic Models, Inc. The animals were maintained on a diet of pelleted rodent chow (Ralston Purina) and were given water ad libitum. The animals were housed in cages in a temperature controlled room, with a 12-hour light/12-hour dark cycle (lights were turned on at 6 AM each day). CI-1027 was suspended in a vehicle of 1.5% carboxymethylcellulose containing 0.2% Tween-20. A control group of six rats were dosed daily with vehicle alone. One group of six test animals received daily oral dosing (by gavage) of 2.5 mL/kg suspensions of CI-1027 at 30 mg/kg active drug, while another group of six animals received daily oral dosing of 2.5 mL/kg of suspension at 100 mg/kg of CI-1027. The pelleted rodent chow was available ad libitun, except on Days 0, 7, 14, 21, 28, and 32, when food was removed from the cages at 7:30 AM, and the animals were weighed within 2 hours following removal of the food. The food trays were replaced in the cages after the weights of all animals were measured.

[2] = Evaluation of CI-1027 in leptin receptor deficient mice (body weight, food consumption); assay type: in vivo

## CC(C)(CCCCOCCCCC(C)(C)C(=O)O)C(=O)O [CI-1027, 6-(5-carboxy-5-methyl-hexyloxy)-2,2-diiethyl-hexanoic acid, calcium salt]
[1]; 30 mg/kg daily oral gavage
  Body Weight Day 0: 265 ± 4 g
  Body Weight Day 7: 283 ± 4^a g
  Body Weight Day 14: 299 ± 4^c g
  Body Weight Day 21: 311 ± 3^c g
  Body Weight Day 28: 317 ± 4^c g
  Body Weight Day 32: 321 ± 4^c g
  Liver Weight Day 32: 22.8 ± 1.0^c g
  Percent Liver/Body Weight: 7.09 ± 0.3^c Percent
[1]; 100 mg/kg daily oral gavage
  Body Weight Day 0: 265 ± 4 g
  Body Weight Day 7: 286 ± 3^a g
  Body Weight Day 14: 302 ± 4^b g
  Body Weight Day 21: 314 ± 4^c g
  Body Weight Day 28: 326 ± 5^c g
  Body Weight Day 32: 326 ± 5^c g
  Liver Weight Day 32: 24.8 ± 1.3^c g
  Percent Liver/Body Weight: 7.53 ± 0.3^c Percent
[1]; all treatment groups (30 and 100 mg/kg), over 32 days
  reduction in weight: significant reduction in weight
[2]
  effect on body weight: no significant effect
  effect on food consumption: no significant effect
